Assays:
5-HT3 Receptor = biological target: T1, 5-HT3 Receptor (Rattus norvegicus, UniProt P35563); experiment: ^3 H-GR 65630 Binding to Rat Entorhinal Cortex Membranes (affinity for 5-HT3 receptor); parameters: species or system Male Wistar rat; settings: 0.4 nM [^3 H]-GR65630, pH 7.4, 30 minutes at 37° C., read-out: IC50, Affinity for 5-HT3 Receptor-Displacement of ^3 H-GR 65630
T1 construct: Male Wistar rats (15-200 g) were decapitated, the entorhinal cortex removed, weighed and homogenized; from tissue; host or cells: entorhinal cortex membranes of male Wistar rats
T1 sequence (P35563 24-483): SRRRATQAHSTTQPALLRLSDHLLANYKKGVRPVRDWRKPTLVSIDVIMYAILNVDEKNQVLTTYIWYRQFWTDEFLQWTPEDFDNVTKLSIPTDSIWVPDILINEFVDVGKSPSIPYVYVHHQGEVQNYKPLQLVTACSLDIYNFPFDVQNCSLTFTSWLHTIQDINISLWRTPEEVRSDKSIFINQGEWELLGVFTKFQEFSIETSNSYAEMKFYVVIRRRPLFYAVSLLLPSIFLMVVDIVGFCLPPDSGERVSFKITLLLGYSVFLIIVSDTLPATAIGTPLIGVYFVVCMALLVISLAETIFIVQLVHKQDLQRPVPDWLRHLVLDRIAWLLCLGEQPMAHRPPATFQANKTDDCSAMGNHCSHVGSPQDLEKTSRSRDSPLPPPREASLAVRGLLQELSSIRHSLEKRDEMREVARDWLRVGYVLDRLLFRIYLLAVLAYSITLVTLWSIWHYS
Experimental: In accordance with the above-discussed assay, a 0.05M of Krebs-Hepes buffer, pH 7.4 was prepared as follows:
q.s. to 1 liter with distilled H2 O, bring pH up to 7.4 (at 4° C.) with 5N NaOH
[^3 H]-GR65630 (87.0 Ci/mmol) was obtained from New England Nuclear.
GR38032F was obtained from Research Biochemical Inc. GR38032F was made up to a concentration of 500 μM in Krebs-Hepes buffer. 50 μl of […] were added to each of 3 tubes for determination of nonspecific binding (yields a final concentration of 100 μM in the 250 μl assay).
For most assays, a 50 μM stock solution was prepared in a suitable solvent and serially diluted with Krebs-Hepes buffer such that when 50 μl of drug is combined with the total 250 μl assay, a final concentration from 10^-5 to 10^-8 M was attained.
During tissue preparation, Male Wistar rats ([…]) were decapitated, the entorhinal cortex removed, weighed and homogenized in 10 volumes of ice cold 0.05M Krebs-Hepes buffer, pH 7.4. The homogenate is centrifuged at 48,000 g for 15 minutes at 4° C. The resulting pellet was rehomogenized in fresh Krebs-Hepes buffer and recentrifuged at 48,000 g for 15 minutes at 4° C. The final pellet was resuspended in the original volume of ice-cold Krebs-Hepes buffer. This yielded a final tissue concentration of 1.2 to 1.6 mg/ml with the addition of 100 μl to the assay.
In conducting the assay, the following volumes were utilized:
Sample tubes were kept on ice for additions, then vortexed and incubated with continuous shaking for 30 minutes at 37° C. At the end of the incubation period, the incubate is diluted with 5 ml of ice-cold Krebs-Hepes buffer and immediately vacuum filtered through Whatman GF/B filters, followed by two 5 ml washes with ice-cold Krebes-Hepes buffer. The filters are dried and counted in 10 ml of liquid scintillation cocktail. […] IC50 values were derived from computer-derived log-probit analysis.

5-HT3 = experiment: 5 HT3 antagonist effects in the Bezold-Jarisch assay (reflex bradycardia, anesthetized Long-Evans rat); assay type: in vivo; settings: ip, mean ± SEM, 2-3 rats/dose
Source text: Measurement of 5 HT3 Antagonist Effects in the Bezold-Jarisch Assay
This assay evaluates the effect of these compounds as 5-HT3 antagonists. They were examined in this assay on the coronary chemoreflex (Bezold-Jarisch) initiated by […] in vivo and characterized by leading inhibition of sympathetic outflow and increased activity of the cardiac vagus, leading to profound bradycardia and hypotension. The values obtained allow for continuous monitoring of arterial pressure and heart rate responses by these compounds over an extended period of time to determine their effecicy for 5 HT3 antagonism.
The catheters were prepared from Tygon tubing (45 cm length, […], ID) bonded to Teflon tubing (0.38 mm, ID). The mechanical bonding was achieved by insertion of the Teflon tubing (5 mm) into the dilated (ethylene dichloride, 3-4 min.) tip of the Tygon tubing. The junction was then sealed with vinyl glue, the catheters were soaked in cold sterilization solution (Amerse instrument germicide) and flushed thoroughly with saline prior to implantation.
Long Evans rats were anesthetized with sodium pentobarbital (50 mg/kg, ip). […] The catheters were then sutured to the underlying muscle and the free ends were passed subcutaneously and exteriorized through an incision on the top of the skull. The catheters were then secured to the skin with sutures, nitrofurazone powder was dusted over the area of the incision and the incision was closed using 3-O silk sutures. The catheters were flushed with saline and sealed with metal obturators. Patentcy of the two catheters was maintained by daily flushing with hepranized saline (0.2 ml of 100 U/ml). The rats were given 48 hours recovery prior to obtaining cardiovascular data.
In the anesthetized rat model the catheters were not exteriorized, data was collected acutely under the influence of general anesthesia.
The baseline data Arterial Blood Pressure (mm Hg, systolic/diastolic) and Heart Rate (beats/min) were recorded and the rats were injected with 5-HT (3-7.5 ug/kg, iv). The individual response to the 5-HT intervention was determined and the compound was then administered singlely or in an ascending dose range. The rats were challenged with 5-HT again at intervals postdosing and the peak response was recorded.

| IC50 (5-HT3 Receptor) [nM] | Structure (SMILES) | % Inhibition of Bezold-Jarisch Reflex (5-HT3; 0.03 mg/kg) [%] | % Inhibition of Bezold-Jarisch Reflex (5-HT3; 0.05 mg/kg) [%] | % Inhibition of Bezold-Jarisch Reflex (5-HT3; 0.10 mg/kg) [%] | % Inhibition of Bezold-Jarisch Reflex (5-HT3; 1.0 mg/kg) [%] | % Inhibition of Bezold-Jarisch Reflex (5-HT3; 3.0 mg/kg) [%] | % Inhibition of Bezold-Jarisch Reflex (5-HT3; 10.0 mg/kg) [%] |
| --- | --- | --- | --- | --- | --- | --- | --- |
| 868 | OCCN1CCN(c2onc3c2CCc2ccccc2-3)CC1 [Ex. 3, 3-(4-(2-Hydroxyethyl)-1-piperazinyl)-4,5-dihydronaphth[1,2-c]isoxazole] |  |  |  |  |  |  |
| 83 | c1ccc2c(c1)CCc1c-2noc1N1CCCNCC1 [Ex. 4, 3-(1-Homopiperazinyl)-4,5-dihydronaphth[1,2-c]isoxazole] | 58.6 ± 16.4 | 83.3 ± 8.2 | 93.0 ± 1.0 |  |  |  |
| 56 | c1ccc2c(c1)CCc1c-2noc1N1CCNCC1 [Ex. 5, 3-(1-Piperazinyl)-4,5-dihydronaphth[1,2-c]isoxazole] |  |  |  | 55.6 ± 9.7 | 89.3 ± 2.9 |  |
|  | Cc1nccn1CC1CCc2c(c3ccccc3n2C)C1=O (stereo not shown) [Ondansetron, reference compound] |  |  |  |  | 57.3 ± 9.7 | 94.6 ± 2.7 |
